Experimental findings from ChEMBL document CHEMBL1135456, “Inhibition of MIF bioactivity by rational design of pharmacological inhibitors of MIF tautomerase activity” (J Med Chem, 2002) are described below.

SMILES strings stand for the structures. pIC50: −log10 of the molar value.

This assay addresses T1, Macrophage migration inhibitory factor (Homo sapiens, UniProt P14174).
T1 sequence (P14174 whole entry): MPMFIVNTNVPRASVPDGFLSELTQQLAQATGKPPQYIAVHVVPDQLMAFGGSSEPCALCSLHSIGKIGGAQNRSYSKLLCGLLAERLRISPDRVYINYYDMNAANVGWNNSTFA
In words: Inhibition of human macrophage migration inhibitory factor tautomerase (MIF) activity.
For the compound `COC(=O)[C@@H](Cc1ccccc1)/N=C/c1ccc(O)cc1`, the pIC50 was 4.30. As for `CC[C@H](/N=C/c1ccc(O)cc1)C(=O)OC`, the negative logarithm of the IC50 (pIC50) was 4.15. `COC(=O)[C@H](CCSC)/N=C/c1ccc(O)cc1` showed a negative-log IC50 (pIC50) of 4.00. Then `COC(=O)[C@H](C)/N=C/c1ccc(O)cc1`, with under 4.00; and `COC(=O)[C@H](CC(C)C)/N=C/c1ccc(O)cc1`, with under 4.00; and `COC(=O)[C@H](CO)/N=C/c1ccc(O)cc1`, with 4.00. `COC(=O)[C@@H](Cc1ccc(O)cc1)/N=C/c1ccc(O)cc1` gave a pIC50 of 5.00.
